Assay results published in patent US11230548B2, “Prodrugs of fumarates and their use in treating various diseases” (Alkermes Pharma Ireland Limited, priority 2013, dated 2022).
Counter-ions that a name gives are not always drawn.

experiment: Aqueous chemical stability in phosphate buffer (HPLC, first-order decay); format: physicochemical; conditions: half-life of the compound in buffer phosphate (100 mM), pH 8, 37° C., half-lives >360 min estimated from initial slope at low conversion (<10%)
Experimental: Stock solutions of the compounds in acetonitrile or acetonitrile/methanol were prepared at 20 mg/mL. and 20 μL, spiked into 3 mL of buffer phosphate (100 mM) and incubated at 37° C. Aliquots (50 μL) were sampled at different time points and diluted 20 fold with ammonium formate (pH 3.5)/acetonitrile. The diluted samples were analyzed by HPLC. The peak areas corresponding to the compounds were plotted against time and the data were fitted to a first-order mono-exponential decay where the rate constant and the half-life were determined (Table 2).

Compared with `COC(=O)/C=C/C(=O)OC(C)CN(C)C` (stereo not drawn) [Compound 6, 1-(dimethylamino)propan-2-yl methyl fumarate hydrochloride], `COC(=O)/C=C/C(=O)OCCN(C)C` [Compound 19, 2-(dimethylamino)ethyl methyl fumarate hydrochloride] is higher in “pH 8 (t½, min)” value: 2.0 min for the first, 6.0 min for the second.

Going from `COC(=O)/C=C/C(=O)OCCN1CCSCC1` [Compound 7, Methyl (2-thiomorpholinoethyl) fumarate hydrochloride] to `COC(=O)/C=C/C(=O)OCCN1CCCC1` [Compound 18, Methyl (2-(pyrrolidin-1-yl)ethyl) fumarate hydrochloride], the “pH 8 (t½, min)” value falls from 26.0 min to 5.0 min.

Compared with `COC(=O)/C=C/C(=O)OCCNc1ccccc1` [Compound 8, Methyl (2-(phenylamino)ethyl) fumarate hydrochloride], `COC(=O)/C=C/C(=O)OCCN(C)c1ccccc1` [Compound 12, Methyl (2-(methyl(phenyl)amino)ethyl) fumarate hydrochloride] is higher in “pH 8 (t½, min)” value: 36.0 min for the first, 396 min for the second.

Compared with `COC(=O)/C=C/C(=O)OCC(C)(C)N(C)C` [Compound 9, 2-(dimethylamino)-2-methylpropyl methyl fumarate hydrochloride], `CCN(CC)CCOC(=O)/C=C/C(=O)OC` [Compound 20, 2-(diethylamino)ethyl methyl fumarate hydrochloride] is lower in “pH 8 (t½, min)” value: 7.0 min for the first, 5.0 min for the second.

First: COC(=O)/C=C/C(=O)OCCS(C)(=O)=O [Compound 10, Methyl (2-(methyl sulfonyl)ethyl) fumarate]
Second: COC(=O)/C=C/C(=O)OCCN1C(=O)CCC1=O [Compound 14, 2-(2,5-dioxopyrrolidin-1-yl)ethyl methyl fumarate]
The “pH 8 (t½, min)” value of the first is lower: 67.0 min for the first, 144 min for the second.

Compared with `COC(=O)/C=C/C(=O)OCCN1CCCCC1` [Compound 15, Methyl (2-(piperidin-1-yl)ethyl) fumarate hydrochloride], `COC(=O)/C=C/C(=O)OCCN1CCOCC1` [Compound 16, Methyl (2-morpholinoethyl) fumarate hydrochloride] is higher in “pH 8 (t½, min)” value: 3.0 min for the first, 20.0 min for the second.

Compared with `COC(=O)/C=C/C(=O)OCCN1CCC2(CC1)OCCO2` [Compound 17, 2-(1,4-dioxa-8-azaspiro[4.5]decan-8-yl)ethyl methyl fumarate hydrochloride], `CCN(CC)C(=O)COC(=O)/C=C/C(=O)OC` [Reference Compound A, 2-(diethylamino)-2-oxoethyl methyl fumarate, reference compound] is higher in “pH 8 (t½, min)” value: 11.0 min for the first, 120 min for the second.

With `COC(=O)/C=C/C(=O)OCCN1CCS(=O)(=O)CC1` [Compound 11, 2-(1,1-dioxidothiomorpholino)ethyl methyl fumarate hydrochloride] the “pH 8 (t½, min)” value was >240 min.
